Assay [1] deals with T1, Shp1 and Src.
T1 construct: expressed in transfected cells; host or cells: NIH3T3
Nature of the assay: Co-immunoprecipitation of Src with Shp1 in NIH3T3 cells. To be noted: 50 μM for 5 min. Format: cell-based. The protocol: NIH3T3 cells were washed with ice-cold PBS and lysed on ice in buffer containing 20 mM Tris-HCl, pH 8.0, 150 mM NaCl, 1% Triton-X100, 5 mM Na3VO4, 30 mM β-glycerophosphate and 10 mM NaF supplemented with the protease inhibitor cocktail and processed for SDS-PAGE. Westen blotting was performed with the relevant antibodies. For immunoprecipitation experiments, 2 μg of an anti-Shp1 antibody or 5 μg of an anti-Src antibody were added to 1 mg of NIH3T3 cell lysates at 4 °C and incubated overnight. The samples were then incubated with A or G protein agarose beads for 1 h at 4 °C. Western blotting was performed from the washed and denatured complexes.

Assay [2] relates to T1, Shp1 and Src. The assay is described as follows: Acceptor photobleaching FRET of Shp1-CFP and Src-YFP. To be noted: 50 μM for 5 min. In kind it is cell-based. The protocol:
Acceptor photobleaching (apFRET) experiments were carried out with Leica SP5 confocal microscope, as follows: for CFP (donor) fluorescence detection, excitation at 458 nm and fluorescence detected at 470–490 nm. For YFP bleaching, a 514 nm argon laser was used. apFRET was measured by increase in CFP fluorescence intensity before (IDA) and after (ID) YFP photobleaching. To ensure reproducibility and reliability of CFP fluorescence measurements in the absence of acceptor (ID), YFP was photobleached to 10% of its initial fluorescence. The FRET efficiency was calculated as E = (ID − IDA)/ ID .

For assay [3], the system named is T2, Shp1 cSH2 domain.
T2 construct: The purified C-terminal SH2 domain (cSH2) was selected for these studies; made in house
Nature of the assay: NMR 1H-15N HSQC titration of cSH2 domain. In kind it is binding, human. Particulars: fast exchange regime, cSH2:GroPIns4P up to 1:5. The protocol: A suite of triple resonance experiments (Additional file 1 Table S1) was used for assignment of the ^1H, ^15N and ^13C backbone resonances of the Shp1 cSH2 domain. All experiments were acquired on a 700 MHz Bruker Avance instrument equipped with a TCI cryoprobe. Assignment of the cSH2 domain backbone resonances was complete with the exception of the resonances of S109 and G175. ^15N cSH2 (200 μM) was titrated with GroPIns4P, and a series of ^1H–^15N-HSQC spectra were recorded at different cSH2:GroPIns4P ratios up to a 1:5 ratio. […] The ^1HN and ^15N chemical shift perturbations were estimated by using the following equation [23]: Δδ=ΔHN^2+ΔN/5^2/2^1/2
Where ΔHN and ΔN are the differences between the ^1H and ^15N chemical shifts of free cSH2 and cSH2 in the presence of GroPIns4P, respectively.

For assay [4], the target named is T3, Shp1 (Homo sapiens, UniProt P29350).
T3 construct: the C-terminal truncated form of human Shp1 cDNA (His-Shp1; amino acids 1–529); made in house; host or cells: E. coli BL21(DE3)
T3 sequence (P29350 1-529 isoform P29350-3): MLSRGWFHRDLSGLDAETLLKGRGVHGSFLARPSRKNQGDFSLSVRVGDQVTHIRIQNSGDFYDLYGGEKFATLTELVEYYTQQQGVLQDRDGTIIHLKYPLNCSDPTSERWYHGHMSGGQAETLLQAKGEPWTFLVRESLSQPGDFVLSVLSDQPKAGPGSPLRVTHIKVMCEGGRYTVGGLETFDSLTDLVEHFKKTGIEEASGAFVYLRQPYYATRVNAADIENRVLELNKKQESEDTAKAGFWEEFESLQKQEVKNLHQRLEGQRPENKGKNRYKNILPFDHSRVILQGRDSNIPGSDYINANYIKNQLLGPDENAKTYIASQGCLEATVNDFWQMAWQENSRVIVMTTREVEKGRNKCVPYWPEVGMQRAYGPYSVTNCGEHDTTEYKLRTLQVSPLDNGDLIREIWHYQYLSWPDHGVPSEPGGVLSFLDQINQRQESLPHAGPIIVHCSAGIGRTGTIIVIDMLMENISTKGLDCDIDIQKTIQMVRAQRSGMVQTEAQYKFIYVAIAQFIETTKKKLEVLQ
Nature of the assay: Isothermal titration calorimetry, Shp1 WT. In kind it is binding. The protocol: ITC measurements were performed by using a Nano-ITC III (TA instruments, New Castle, DE, USA) with a reaction cell volume of 1 ml kept at 25 °C. A protein solution of 10 μM was titrated into the calorimetric cell with a solution of 50–100 μM of the ligand GroPIns4P (Ins4P) in the syringe. A sequence of 16 injections of 15 μL volume was programmed with a stirring speed of 250 rpm at 500 s intervals. Protein samples were prepared with protein solutions at 25 °C in 20 mM Tris buffer pH 7.4 with 50 mM NaCl and 1 mM TCEP. To minimise the differences in buffer composition and pH between cell and syringe, both ligand and protein solutions were prepared with the same batch of buffer. The heat of dilution of the GroPIns4P into the buffer solution was measured in a separate experiment and appropriate corrections were made. The heat evolved after each ligand injection was obtained from the integral of the calorimetric signal. Raw data were integrated, corrected for non-specific heats and normalized for concentration. The equilibrium dissociation constant (KD), binding enthalpy (ΔbH) and binding stoichiometry (n) were obtained by nonlinear regression of the experimental data using a model of independent binding sites, by means of the NanoAnalyze software. Experiments were performed in duplicate.
A general note: Isothermal titration calorimetry measures the heat released or taken up as one component is titrated into another.

Structures are written as SMILES. Read-outs that look alike come from different tables or passages of the source.

Consider `O=P(O)(O)OC1C(O)C(O)C(OP(=O)(O)OCC(O)CO)C(O)C1O` (centres unmarked) [GroPIns4P, glycerophosphoinositol 4-phosphate], for which the “increase in the interaction between Shp1-C455S and Src” value in assay [1] (NIH3T3 over-expressing Shp1-C455S) worked out at 2.2 fold. Moreover, the “change in Shp1-Src complex formation” value in assay [1] (NIH3T3 over-expressing Shp1 S118A/R138E/S140A) was “no change”. Further, the “increase of Shp1-Src interaction compared with the control” value in assay [1] (NIH3T3 over-expressing Shp1 WT) is “about 1.6 fold”. In addition, the “FRET efficiency in hot spots” value in assay [2] (lamellar regions) was “over 20%”. Moreover, the “average FRET efficiency” value in assay [2] (over the cells) is on record as 9%. Besides, in assay [3], the “exchange rate between bound and free cSH2” value is “higher than 2 × 10^3 s^-1”. Moreover, the Kd was 300 nM in assay [4] (ITC, 25 °C, Shp1 WT, read-out: KD); 300 to 800 nM in assay [4] (summary over ITC, Trp fluorescence and SPR competition, read-out: affinity of the binding).

The values above are taken from article PMC6396489 (Cell Communication and Signaling : CCS, 2019).
